According to US20250319053A1, “INHIBITORS OF THE PEPTIDYL-PROLYL CIS/TRANS ISOMERASE (PIN1), COMBINATIONS AND USES THEREOF” (DANA-FARBER CANCER INSTITUTE, INC., priority 2021, published 2025):

Legend:
[1] = system: patient-derived PDAC tumors in PDTX mice; test: Patient-derived tumor orthotopic xenograft (PDTX) mouse model; type: in vivo
From the text: Allelic profiling of resulting KPC mice by the B6 panel (Jackson Laboratories) confirmed 129S1/SvImJ with average match of 84.2%, 129S4SvJae with average match of 83.8%, B6N with average match of 65.7% and B6J, with average match of 65.1%. 2) the KPC Genetically engineered mouse-derived orthotopic allografts (GDA) mouse model (Hingorani et al., Cancer Cell 7, 469-483 (2005); Li et al., Comput Struct Biotechnol J 17, 498-506 (2019)). Mouse PDAC cells were established from KPC mouse pancreatic tumor tissues, followed by orthotopically injecting 1×10^6 mouse PDAC cells in 50 μL Matrigel (356231, Coaning) into the pancreas of female 8 week-old syngeneic immunocompetent C57BL/6 mice (Jackson Laboratories). 3) PDAC Patient-derived Tumor orthotopic xenografted (PDTX) mouse model (Gilles et al., Clin Cancer Res 24, 1734-1747 (2018); Rubio-Viqueira et al., Clin Cancer Res 12, 4652-4661 (2006)). PDAC PDX tumors were obtained from Dr. Muthuswamy and Dr. Hidalgo and divided into 4×2 mm pieces, followed by xenografting orthotopically into the pancreas of female 8-week-old immunodeficient NOD.Cg-Prkdc^scid Il12rg^tm1Wjl/SzJ (NOD scid gamma; NSG) mice (Jackson Laboratories). 4) PDAC Patient-derived Organoid and CAFs orthotopic xenograft (PDOX) mouse model (Dantes et al., JCI Insight 5, 137809 (2020); (Koikawa et al., Cancer letters 425, 65-77 (2018)). 5×10^4 patient derived PDAC organoids and 5×10^4 patient derived CAFs in 50 μL of Matrigel were injected orthotopically into the pancreas of female 8 week-old immunodeficient NSG mice (Jackson Laboratories).
Briefly, all mice were randomly selected to receive treatments groups. Tumor sizes were measured by weekly palpation with electronic caliper or ultrasound, and when tumors were reached >0.5 cm, the treatment was started. Briefly, animals were placed under general anesthesia with 2%-3% isoflurane once a week. Under general anesthesia, the abdominal wall became very flaccid, and the muscle tone of the mouse was very low. The mouse was scuffed with the left hand to allow for palpation and measurement with the right hand. This allowed to detect the firm pancreatic mass by palpation, and to determine its size by electronic caliper measurements. […] In the GDA model and PDX models, palpable tumors predictably were detectable within 4-7 days post implantation. […] When the tumor by palpation after age 12 weeks could not be detected, the mice were monitored by ultrasound. Once the maximum length >0.5 cm tumor was detected, the mice were randomized to treatment, and then followed tumor growth by electronic caliper measurement. To validate the external caliper measurements, the tumor size was measured prior to euthanization of the mice and then measured the actual tumor size upon necropsy to ascertain concordance. […]

[2] = system: primary human CAFs (CAF1 and CAF2); test: Cell proliferation assay (CellTiter-Glo) in CAFs; type: cell-based; details: 72 hrs
Procedure: Cells were seeded at a density of 5000 cells (PDAC1 and PDAC2), or 3000 cells (CAF1 and CAF2) per well in 96-well flat-bottomed plates and incubated for 24 h in culture medium. […] Control cells received dimethyl sulfoxide (DMSO) at a concentration equal to that of drug-treated cells for 72 hours. The cell viability was determined by CellTiter-Glo® 2.0 Assay (Promega) following the manufacturer's instructions.

Pin1 = Pin1 (Homo sapiens, UniProt Q13526); test: Immunoblotting for Pin1 and substrate oncoproteins in CAFs; type: cell-based; parameters: endogenous in cells; details: 72 hrs
Procedure: Cultured cells were lysed in RIPA buffer (50 mM Tris-HCl, pH 7.2, 150 mM NaCl, 1% NP40, 0.1% sodium dodecyl sulfate (SDS), 0.25% Na-deoxycholate) with freshly added phosphatase inhibitors containing 5 mM NaF and 0.2 mM sodium orthovanadate (NA3VO4), and proteinase inhibitors containing 2 μg/mL Aprotinin, 2 μg/mL Leupeptin, 2 μg/mL Pepstatin A, 1 mM DTT (dithiothreitol), 0.5 mM 4-(2-aminoethyl)-benzenesulfonyl fluoride (AEBSF), and 20 mM Chymotrypsin, and then mixed with the SDS sample buffer and loaded onto a gel after boiling for 10 minutes at 95° C. The proteins were resolved by polyacrylamide gel electrophoresis and transferred to PVDF membrane. The transferred membrane was washed three times with Tris-buffered saline containing 0.1% Tween 20 (TBST). After blocking with TBST containing 5% milk or 3% bovine serum albumin (BSA) for 1 h room temperature, the membrane was incubated with the appropriate primary antibody (diluted 1:500-1:10000) in 5% milk or 3% BSA-containing TBST at 4° C. overnight. […] After three extensive washes with TBST for a total of 30 min, the immunoblots were visualized by enhanced chemi-luminescence. Immunoblotting results were quantified using ImageJ (NIH).

advanced PDAC patients = details: cited from earlier work

Chain of Pin1 (Q13526 whole entry): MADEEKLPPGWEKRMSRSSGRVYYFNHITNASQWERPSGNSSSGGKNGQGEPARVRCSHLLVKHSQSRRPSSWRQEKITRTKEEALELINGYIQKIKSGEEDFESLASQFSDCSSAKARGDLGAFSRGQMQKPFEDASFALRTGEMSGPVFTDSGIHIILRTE

In the case of `CC(C)(C)CN(C(=O)CCl)C1CCS(=O)(=O)C1` (centres unmarked) [Pin1i−2, sulfopin], the “CAF activation (IF for αSMA or PDGFRα)” value ([1]; PDTX mice, 4 weeks) is reported as “significantly reduced”, the “collagen deposition (Sirius Red staining)” value ([1]; PDTX mice, 4 weeks) is reported as “significantly reduced” and the tumor growth ([1]; overt tumor-bearing PDTX mice, 4 weeks) is reported as “significantly reduced tumor growth”. The “CAF proliferation (cell growth)” value [2] was “suppression of CAF proliferation” and the “Pin1 and its substrate oncoproteins (IB)” value (Pin1) was “dose-dependently reduced Pin1 and its many substrate oncoproteins”.
In the case of `Nc1ccn([C@@H]2O[C@H](CO)[C@@H](O)C2(F)F)c(=O)n1` [GEM, gemcitabine, reference compound], the “overall survival (OS)” value (advanced PDAC patients) is given as 6.6 month, the response rate (advanced PDAC patients) is given as 23.8% and the Median survival ([1]; PDTX mice, FIG. 8M, GEM 20 mg/kg, n=6, vehicle 36 days) is given as 42.5 days.
